Target: T1, Kv7.2/7.3 (Homo sapiens, UniProt O43525+O43526)
T1 construct: Kv7.2 tetracycline-induced, Kv7.3 constitutive
Test: Kv7.2/7.3 Activation Assay (Thallium Flux Assay)
Assay type: cell-based
Conditions: hKV7.2/7.3 cell line; test compound at single concentration of 10 μM; fluorescence at 90 sec normalized to positive control (retigabine, 30 μM)
In short: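 Single-point activity at 10 μM (0.1% DMSO, HEPES-buffered saline, pH 7.4) was scored from fluorescence at 90 s relative to 30 μM retigabine. Categories were none <0.15, moderate 0.15-0.7 and high >0.7. Thallium influx after stimulus addition was followed with FluxOR II Green dye in hKv7.2/7.3 cells, Kv7.2 expressed under overnight tetracycline (10 ng/mL) induction.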

Cn1nc(NC(=O)[C@H]2C[C@H]2F)c(C2CCC2)c1-c1ccc(F)cc1 [Compound 206, (1R,2R)-N-(4-cyclobutyl-5-(4-fluorophenyl)-1-methyl-1H-pyrazol-3-yl)-2-fluorocyclopropane-1-carboxamide]
Kv7.2/7.3 Activity: + (“+” Moderate Activity 0.15-0.7)

Cn1nc(NC(=O)[C@H]2CC2(C)C)c(-c2ccc(F)cc2)c1C1CC(F)(F)C1 [Compound 207, (S)-N-(5-(3,3-difluorocyclobutyl)-4-(4-fluorophenyl)-1-methyl-1H-pyrazol-3-yl)-2,2-dimethylcyclopropane-1-carboxamide]
Kv7.2/7.3 Activity: ++ (“++” High Activity ≥ 0.7)

Cn1nc(NC(=O)C2(C)CC(F)(F)C2)c(C2CCC2)c1-c1ccc(C(F)(F)F)cc1 [Compound 208, N-(4-cyclobutyl-1-methyl-5-(4-(trifluoromethyl)phenyl)-1H-pyrazol-3-yl)-3,3-difluoro-1-methylcyclobutane-1-carboxamide]
Kv7.2/7.3 Activity: − (“−” No Activity < 0.15)

Cn1nc(NC(=O)C2CC(F)(F)C2)c(C2CCC2)c1-c1ccc(C(F)(F)F)cc1 [Compound 209, N-(4-cyclobutyl-1-methyl-5-(4-(trifluoromethyl)phenyl)-1H-pyrazol-3-yl)-3,3-difluorocyclobutane-1-carboxamide]
Kv7.2/7.3 Activity: + (“+” Moderate Activity 0.15-0.7)

Cn1nc(NC(=O)C2(C)CC(F)(F)C2)c(C2CCC2)c1-c1ccc(Cl)s1 [Compound 210, N-(5-(5-chlorothiophen-2-yl)-4-cyclobutyl-1-methyl-1H-pyrazol-3-yl)-3,3-difluoro-1-methylcyclobutane-1-carboxamide]
Kv7.2/7.3 Activity: ++ (“++” High Activity ≥ 0.7)

Cn1nc(NC(=O)NC2CC(F)(F)C2)c(C2CCC2)c1-c1ccc(Cl)s1 [Compound 211, 1-(5-(5-chlorothiophen-2-yl)-4-cyclobutyl-1-methyl-1H-pyrazol-3-yl)-3-(3,3-difluorocyclobutyl)urea]
Kv7.2/7.3 Activity: ++ (“++” High Activity ≥ 0.7)

Cn1nc(NC(=O)NC2CC(F)(F)C2)c(C2CCC2)c1-c1ccc(F)cc1 [Compound 212, 1-(4-cyclobutyl-5-(4-fluorophenyl)-1-methyl-1H-pyrazol-3-yl)-3-(3,3-difluorocyclobutyl)urea]
Kv7.2/7.3 Activity: + (“+” Moderate Activity 0.15-0.7)

Cn1nc(NC(=O)NC2CC(F)(F)C2)c(C2CCC2)c1-c1ccc(F)c(F)c1 [Compound 213, 1-(4-cyclobutyl-5-(3,4-difluorophenyl)-1-methyl-1H-pyrazol-3-yl)-3-(3,3-difluorocyclobutyl)urea]
Kv7.2/7.3 Activity: ++ (“++” High Activity ≥ 0.7)

CCO[C@@H](CC(=O)Nc1nn(C)c(-c2ccc(F)c(F)c2)c1C1CCC1)C(F)(F)F [Compound 214, (S)-N-(4-cyclobutyl-5-(3,4-difluorophenyl)-1-methyl-1H-pyrazol-3-yl)-3-ethoxy-4,4,4-trifluorobutanamide]
Kv7.2/7.3 Activity: ++ (“++” High Activity ≥ 0.7)

CO[C@@H](CC(=O)Nc1nn(C)c(-c2ccc(F)c(F)c2)c1C1CCC1)C(F)(F)F [Compound 215, (S)-N-(4-cyclobutyl-5-(3,4-difluorophenyl)-1-methyl-1H-pyrazol-3-yl)-4,4,4-trifluoro-3-methoxybutanamide]
Kv7.2/7.3 Activity: ++ (“++” High Activity ≥ 0.7)

COC1(CC(=O)Nc2nn(C)c(-c3ccc(F)c(F)c3)c2C2CCC2)CCC1 [Compound 216, N-(4-cyclobutyl-5-(3,4-difluorophenyl)-1-methyl-1H-pyrazol-3-yl)-2-(1-methoxycyclobutyl)acetamide]
Kv7.2/7.3 Activity: ++ (“++” High Activity ≥ 0.7)

Cn1nc(NC(=O)CC2CC(F)(F)C2)c(C2CCC2)c1-c1ccc(F)c(F)c1 [Compound 217, N-(4-cyclobutyl-5-(3,4-difluorophenyl)-1-methyl-1H-pyrazol-3-yl)-2-(3,3-difluorocyclobutyl)acetamide]
Kv7.2/7.3 Activity: ++ (“++” High Activity ≥ 0.7)

Cn1nc(NC(=O)CC2CC(F)(F)C2)c(C2CCC2)c1-c1ccc(Cl)s1 [Compound 218, N-(5-(5-chlorothiophen-2-yl)-4-cyclobutyl-1-methyl-1H-pyrazol-3-yl)-2-(3,3-difluorocyclobutyl)acetamide]
Kv7.2/7.3 Activity: ++ (“++” High Activity ≥ 0.7)

Source: patent publication US20250171430A1, “PYRAZOLYL COMPOUNDS AS KV7 CHANNEL ACTIVATORS” (Biohaven Therapeutics Ltd., priority 2022, published 2025)
